Experimental data as given in patent publication US5639765A, “Guanidinoalkyl glycine β-amino acids useful for inhibiting bone loss” (G. D. Searle & Co., priority 1995, dated 1997).
Where a name gives a salt, the structure may show the parent alone.

Assays:
[1] = biological target: T1, Human vitronectin receptor (αv β3) (Homo sapiens, UniProt P05106+P06756); assay: Solid Phase Receptor Assay, purified αv β3 (vitronectin receptor) competition with biotinylated vitronectin; format: binding; conditions: 1 nM biotinylated vitronectin, 2 h competition, room temperature, R = H, read-out: VnR/IC50
T1 construct: purified from human placenta; from tissue; host or cells: human placenta
Procedure: Human vitronectin receptor(αv β3) was purified from human placenta as previously described [Pytela et al., Methods in Enzymology, 144:475-489 (1987)]. Human vitronectin was purified from fresh frozen plasma as previously described [Yatohgo et al., Cell Structure and Function, 13:281-292 (1988)]. Biotinylated human vitronectin was prepared by coupling NHS-biotin from Pierce Chemical Company (Rockford, Ill.) to purified vitronectin as previously described [Charo et al., J. Biol. Chem., 266(3):1415-1421 (1991)]. Assay buffer, OPD substrate tablets, and RIA grade BSA were obtained from Sigma (St. Louis, Mo.). Anti-biotin antibody was obtained from Calbiochem (La Jolla, Calif.). GRGDSP peptide was purchased from Bachem (Torrance, Calif.). Linbro microtiter plates were obtained from Flow Labs (McLean, Va.). ADP reagent was obtained from Sigma (St. Louis, Mo.).
This assay was essentially the same as previously reported [Niiya et al., Blood, 70:475-483 (1987)]. The purified human vitronectin receptor (αv β3) was diluted from stock solutions to 1.0 μg/mL in Tris-buffered saline containing 1.0 mM Ca^++, Mg^++, and Mn^++, pH 7.4 (TBS^+++). The diluted receptor was immediately transferred to Linbro microtiter plates at 100 μL/well (100 ng receptor/well). The plates were sealed and incubated overnight at 4° C. to allow the receptor to bind to the wells. All remaining steps were at room temperature. The assay plates were emptied and 200 μL of 1% RIA grade BSA in TBS^+++ (TBS^+++ /BSA) were added to block exposed plastic surfaces. Following a 2 hour incubation, the assay plates were washed with TBS^+++ using a 96 well plate washer. Logarithmic serial dilution of the test compound and controls were made starting at a stock concentration of 2 mM and using 2 nM biotinylated vitronectin in TBS^+++ /BSA as the diluent. This premixing of labeled ligand with test (or control) ligand, and subsequent transfer of 50 μL aliquots to the assay plate was carried out with a CETUS Propette robot; the final concentration of the labeled ligand was 1 nM and the highest concentration of test compound was 1.0×10^-4 M. The competition occurred for two hours after which all wells were washed with a plate washer as before. Affinity purified horseradish peroxidase labeled goat anti-biotin antibody was diluted 1:3000 in TBS^+++ /BSA and 125 μL were added to each well. After 30 minutes, the plates were washed and incubated with OPD/H2 O2 substrate in 100 mM/L Citrate buffer, pH 5.0. The plate was read with a microtiter plate reader at a wavelength of 450 nm and when the maximum-binding control wells reached an absorbance of about 1.0, the final A450 were recorded for analysis. The data were analyzed using a macro written for use with the EXCEL™ spreadsheet program. The mean, standard deviation, and % CV were determined for duplicate concentrations. The mean A450 values were normalized to the mean of four maximum-binding controls (no competitor added)(B-MAX). The normalized values were subjected to a four parameter curve fit algorithm [Rodbard et al., Int. Atomic Energy.Agency, Vienna, pp 469 (1977)], plotted on a semi-log scale, and the computed IC50 and corresponding R^2 was reported. GRGDSP, a peptide fragment of fibrinogen, was included on each plate as a positive control.

osteoclastic activity [2] = conditions: cited from earlier work
osteoclastic activity [3] = conditions: cited from earlier work; remark: listed apart in the source

Row | IC50 [1] [µM] | Compound | inhibition of osteoclastic activity in vitro (osteoclastic activity [2]) | inhibition of osteoclastic activity in vivo (osteoclastic activity [3])
1 | 0.0231 | N=C(N)NCCCC(=O)NCC(=O)NC(CC(=O)O)c1cccnc1 (racemic) [Example 3, (±) β-[[2-[[4-[(aminoiminomethyl)amino]-1-oxobutyl]amino]-1-oxoethyl]amino]-3-pyridinepropanoic acid, bistrifluoroacetate salt] |  | 
2 | 0.46 | N=C(N)NCCCCCC(=O)NCC(=O)NC(CC(=O)O)c1cccnc1 (racemic) [Example 4, (±) β-[[2-[[6-[(aminoiminomethyl)amino]-1-oxohexyl]amino]-1-oxoethyl]amino]-3-pyridinepropanoic acid, bistrifluoroacetate salt] |  | 
3 | 0.706 | N=C(N)NCCCC(=O)NCCC(=O)NC(CC(=O)O)c1cccnc1 (racemic) [Example 5, (±) β-[[3-[[4-[(aminoiminomethyl)amino]-1-oxobutyl]amino]-1-oxopropyl]amino]-3-pyridinepropanoic acid, bistrifluoroacetate salt] |  | 
4 | 0.0316 | N=C(N)NCC(CC(=O)NCC(=O)NC(CC(=O)O)c1cccnc1)c1ccccc1 (racemic) [Example 6, (±) β-[[2-[[4-[(aminoiminomethyl, amino]-1-oxo-3-phenylbutyl]amino]-1-oxoethyl]amino]-3-pyridinepropanoic acid, bistrifluoroacetate salt] |  | 
5 | 0.0094 | N=C(N)NCCCCC(=O)NCC(=O)NC(CC(=O)O)c1cccnc1 (stereo not drawn) [Example 1, β-[[2-[[5-[(aminoiminomethyl]amino]-1-oxopentyl]amino]-1-oxoethyl]amino]-3-pyridinepropanoic acid, bistrifluoroacetate salt] |  | 
6 |  | echistatin | potent inhibitors | potent inhibitors
